Data as given in the NIST ThermoML archive (doi:10.1016/j.tca.2014.07.018).
Numbers after ± are expanded uncertainties.

Assay: molar heat capacity at saturation pressure
Conditions: Crystal, Small (less than 1 g) adiabatic calorimetry

With `C1C2CC3CC1CC(c1nnn[nH]1)(C2)C3` [5-(1-adamantyl)tetrazole] as the compound, how does the molar heat capacity (5.162 K) read?
Its molar heat capacity is 0.5343 ± 0.024 J/K/mol.

What about the molar heat capacity (5.486 K) of the same compound?
Its molar heat capacity is 0.6514 ± 0.026 J/K/mol.

And the molar heat capacity (5.811 K)?
Its molar heat capacity is 0.7886 ± 0.029 J/K/mol.

And the molar heat capacity (6.141 K)?
The molar heat capacity was 0.9446 ± 0.033 J/K/mol.

What about the molar heat capacity (6.535 K) of the same compound?
The molar heat capacity was 1.157 ± 0.037 J/K/mol.

What about the molar heat capacity (6.999 K) of the same compound?
The molar heat capacity was 1.433 ± 0.043 J/K/mol.

And the molar heat capacity (7.466 K)?
Its molar heat capacity is 1.748 ± 0.05 J/K/mol.

What about the molar heat capacity (7.944 K) of the same compound?
Its molar heat capacity is 2.099 ± 0.058 J/K/mol.

And the molar heat capacity (8.427 K)?
Its molar heat capacity is 2.496 ± 0.067 J/K/mol.

What about the molar heat capacity (8.915 K) of the same compound?
Its molar heat capacity is 2.914 ± 0.076 J/K/mol.

And the molar heat capacity (9.407 K)?
Its molar heat capacity is 3.374 ± 0.086 J/K/mol.

And the molar heat capacity (9.905 K)?
The molar heat capacity was 3.847 ± 0.097 J/K/mol.

And the molar heat capacity (10.47 K)?
The molar heat capacity was 4.424 ± 0.078 J/K/mol.

What about the molar heat capacity (11.12 K) of the same compound?
The molar heat capacity was 5.106 ± 0.088 J/K/mol.

What about the molar heat capacity (11.77 K) of the same compound?
The molar heat capacity was 5.817 ± 0.097 J/K/mol.

And the molar heat capacity (12.42 K)?
The molar heat capacity was 6.568 ± 0.11 J/K/mol.

And the molar heat capacity (13.1 K)?
The molar heat capacity was 7.361 ± 0.12 J/K/mol.

What about the molar heat capacity (13.77 K) of the same compound?
The molar heat capacity was 8.166 ± 0.13 J/K/mol.

What about the molar heat capacity (14.45 K) of the same compound?
The molar heat capacity was 9.013 ± 0.14 J/K/mol.

What about the molar heat capacity (15.14 K) of the same compound?
Its molar heat capacity is 9.87 ± 0.15 J/K/mol.

What about the molar heat capacity (15.93 K) of the same compound?
The molar heat capacity was 10.87 ± 0.16 J/K/mol.

What about the molar heat capacity (16.83 K) of the same compound?
The molar heat capacity was 12.03 ± 0.18 J/K/mol.

What about the molar heat capacity (17.74 K) of the same compound?
The molar heat capacity was 13.17 ± 0.19 J/K/mol.

What about the molar heat capacity (18.65 K) of the same compound?
Its molar heat capacity is 14.31 ± 0.2 J/K/mol.

What about the molar heat capacity (19.56 K) of the same compound?
Its molar heat capacity is 15.45 ± 0.21 J/K/mol.

And the molar heat capacity (20.76 K)?
Its molar heat capacity is 16.96 ± 0.17 J/K/mol.

And the molar heat capacity (22.25 K)?
The molar heat capacity was 18.79 ± 0.18 J/K/mol.

What about the molar heat capacity (23.76 K) of the same compound?
The molar heat capacity was 20.65 ± 0.19 J/K/mol.

And the molar heat capacity (25.27 K)?
Its molar heat capacity is 22.46 ± 0.19 J/K/mol.

And the molar heat capacity (26.78 K)?
Its molar heat capacity is 24.22 ± 0.2 J/K/mol.

And the molar heat capacity (28.31 K)?
Its molar heat capacity is 25.96 ± 0.2 J/K/mol.

What about the molar heat capacity (29.59 K) of the same compound?
Its molar heat capacity is 27.43 ± 0.2 J/K/mol.

What about the molar heat capacity (31.31 K) of the same compound?
Its molar heat capacity is 29.26 ± 0.21 J/K/mol.

What about the molar heat capacity (33.16 K) of the same compound?
The molar heat capacity was 31.15 ± 0.22 J/K/mol.

And the molar heat capacity (35.01 K)?
The molar heat capacity was 33.01 ± 0.23 J/K/mol.

And the molar heat capacity (36.86 K)?
Its molar heat capacity is 34.76 ± 0.24 J/K/mol.

What about the molar heat capacity (38.72 K) of the same compound?
Its molar heat capacity is 36.52 ± 0.25 J/K/mol.

What about the molar heat capacity (40.58 K) of the same compound?
Its molar heat capacity is 38.18 ± 0.26 J/K/mol.

What about the molar heat capacity (42.54 K) of the same compound?
Its molar heat capacity is 39.91 ± 0.27 J/K/mol.

And the molar heat capacity (44.6 K)?
The molar heat capacity was 41.62 ± 0.27 J/K/mol.

And the molar heat capacity (46.67 K)?
The molar heat capacity was 43.41 ± 0.28 J/K/mol.

And the molar heat capacity (48.74 K)?
The molar heat capacity was 45.04 ± 0.29 J/K/mol.

What about the molar heat capacity (50.82 K) of the same compound?
The molar heat capacity was 46.64 ± 0.3 J/K/mol.

And the molar heat capacity (52.9 K)?
The molar heat capacity was 48.22 ± 0.31 J/K/mol.

What about the molar heat capacity (54.99 K) of the same compound?
Its molar heat capacity is 49.8 ± 0.32 J/K/mol.

What about the molar heat capacity (57.07 K) of the same compound?
Its molar heat capacity is 51.31 ± 0.33 J/K/mol.

And the molar heat capacity (59.17 K)?
The molar heat capacity was 52.73 ± 0.33 J/K/mol.

What about the molar heat capacity (61.28 K) of the same compound?
Its molar heat capacity is 54.19 ± 0.34 J/K/mol.

And the molar heat capacity (63.38 K)?
The molar heat capacity was 55.67 ± 0.35 J/K/mol.

And the molar heat capacity (65.49 K)?
The molar heat capacity was 57.06 ± 0.36 J/K/mol.

And the molar heat capacity (67.6 K)?
Its molar heat capacity is 58.52 ± 0.36 J/K/mol.

What about the molar heat capacity (69.71 K) of the same compound?
The molar heat capacity was 59.93 ± 0.37 J/K/mol.

What about the molar heat capacity (71.92 K) of the same compound?
Its molar heat capacity is 61.4 ± 0.38 J/K/mol.

What about the molar heat capacity (74.24 K) of the same compound?
Its molar heat capacity is 62.88 ± 0.39 J/K/mol.

What about the molar heat capacity (76.57 K) of the same compound?
The molar heat capacity was 64.45 ± 0.39 J/K/mol.

What about the molar heat capacity (78.7 K) of the same compound?
Its molar heat capacity is 65.87 ± 0.4 J/K/mol.

And the molar heat capacity (78.9 K)?
Its molar heat capacity is 65.93 ± 0.4 J/K/mol.

What about the molar heat capacity (80.66 K) of the same compound?
Its molar heat capacity is 67.14 ± 0.41 J/K/mol.

What about the molar heat capacity (81.23 K) of the same compound?
Its molar heat capacity is 67.48 ± 0.41 J/K/mol.

And the molar heat capacity (82.56 K)?
The molar heat capacity was 68.36 ± 0.42 J/K/mol.

And the molar heat capacity (83.56 K)?
Its molar heat capacity is 68.98 ± 0.42 J/K/mol.

And the molar heat capacity (84.46 K)?
Its molar heat capacity is 69.59 ± 0.42 J/K/mol.

And the molar heat capacity (86.37 K)?
Its molar heat capacity is 70.82 ± 0.43 J/K/mol.

And the molar heat capacity (88.29 K)?
The molar heat capacity was 72.06 ± 0.43 J/K/mol.

What about the molar heat capacity (90.2 K) of the same compound?
Its molar heat capacity is 73.3 ± 0.46 J/K/mol.

What about the molar heat capacity (92.12 K) of the same compound?
The molar heat capacity was 74.53 ± 0.46 J/K/mol.

What about the molar heat capacity (94.04 K) of the same compound?
Its molar heat capacity is 75.78 ± 0.47 J/K/mol.

And the molar heat capacity (95.96 K)?
The molar heat capacity was 77.1 ± 0.47 J/K/mol.

And the molar heat capacity (97.9 K)?
The molar heat capacity was 78.34 ± 0.48 J/K/mol.

And the molar heat capacity (99.83 K)?
Its molar heat capacity is 79.61 ± 0.49 J/K/mol.

And the molar heat capacity (101.75 K)?
Its molar heat capacity is 80.79 ± 0.49 J/K/mol.

And the molar heat capacity (103.69 K)?
Its molar heat capacity is 82.06 ± 0.5 J/K/mol.

What about the molar heat capacity (105.62 K) of the same compound?
The molar heat capacity was 83.32 ± 0.5 J/K/mol.

What about the molar heat capacity (107.56 K) of the same compound?
Its molar heat capacity is 84.62 ± 0.51 J/K/mol.

What about the molar heat capacity (109.51 K) of the same compound?
Its molar heat capacity is 85.87 ± 0.52 J/K/mol.

What about the molar heat capacity (111.45 K) of the same compound?
Its molar heat capacity is 87.18 ± 0.52 J/K/mol.

And the molar heat capacity (113.4 K)?
The molar heat capacity was 88.45 ± 0.53 J/K/mol.

What about the molar heat capacity (115.36 K) of the same compound?
Its molar heat capacity is 89.75 ± 0.53 J/K/mol.

What about the molar heat capacity (117.32 K) of the same compound?
The molar heat capacity was 91.05 ± 0.54 J/K/mol.

And the molar heat capacity (119.27 K)?
The molar heat capacity was 92.33 ± 0.55 J/K/mol.

What about the molar heat capacity (121.23 K) of the same compound?
The molar heat capacity was 93.59 ± 0.55 J/K/mol.

What about the molar heat capacity (123.19 K) of the same compound?
Its molar heat capacity is 94.91 ± 0.56 J/K/mol.

What about the molar heat capacity (125.16 K) of the same compound?
The molar heat capacity was 96.2 ± 0.56 J/K/mol.

And the molar heat capacity (127.12 K)?
Its molar heat capacity is 97.48 ± 0.57 J/K/mol.

What about the molar heat capacity (129.09 K) of the same compound?
Its molar heat capacity is 98.86 ± 0.58 J/K/mol.

And the molar heat capacity (131.06 K)?
Its molar heat capacity is 100.1 ± 0.6 J/K/mol.

What about the molar heat capacity (133.04 K) of the same compound?
Its molar heat capacity is 101.5 ± 0.6 J/K/mol.

What about the molar heat capacity (135.02 K) of the same compound?
Its molar heat capacity is 102.8 ± 0.6 J/K/mol.

What about the molar heat capacity (137 K) of the same compound?
The molar heat capacity was 104.2 ± 0.6 J/K/mol.

And the molar heat capacity (138.98 K)?
Its molar heat capacity is 105.5 ± 0.6 J/K/mol.

What about the molar heat capacity (140.97 K) of the same compound?
Its molar heat capacity is 106.9 ± 0.6 J/K/mol.

What about the molar heat capacity (142.95 K) of the same compound?
Its molar heat capacity is 108.3 ± 0.6 J/K/mol.

And the molar heat capacity (144.93 K)?
Its molar heat capacity is 109.7 ± 0.6 J/K/mol.

What about the molar heat capacity (146.93 K) of the same compound?
The molar heat capacity was 111.1 ± 0.6 J/K/mol.

What about the molar heat capacity (148.92 K) of the same compound?
The molar heat capacity was 112.6 ± 0.6 J/K/mol.

What about the molar heat capacity (150.91 K) of the same compound?
The molar heat capacity was 114 ± 0.7 J/K/mol.

And the molar heat capacity (152.9 K)?
Its molar heat capacity is 115.4 ± 0.7 J/K/mol.

And the molar heat capacity (154.89 K)?
The molar heat capacity was 116.8 ± 0.7 J/K/mol.

What about the molar heat capacity (156.89 K) of the same compound?
Its molar heat capacity is 118.3 ± 0.7 J/K/mol.

What about the molar heat capacity (158.89 K) of the same compound?
Its molar heat capacity is 119.8 ± 0.7 J/K/mol.

And the molar heat capacity (160.89 K)?
Its molar heat capacity is 121.3 ± 0.7 J/K/mol.

And the molar heat capacity (162.89 K)?
The molar heat capacity was 122.7 ± 0.7 J/K/mol.
